Columns and labels:
[1] = intravenously to dogs, even in high doses; cited from earlier work
[2] = tested on: experimental thrombosis (induced either by stasis or by the injection of thrombin), endotoxin shock, DIC; details: cited from earlier work
[3] = tested on: other enzymes of the blood coagulation cascade; details: natural hirudin; cited from earlier work
[4] = tested on: other enzymes of the blood coagulation cascade; assay: action on other enzymes/proteinases of the blood coagulation system; format: biochemical; details: desulphatohirudin
[5] = tolerability (hypersensitivity, allergic reactions, harmlessness); details: in vivo
[6] = toxicity in rats; format: in vivo; details: dose 1 g/kg
[7] = tested on: thrombin from human plasma; assay: thrombin-inhibition test with Chromozym TH; format: biochemical; details: for Thrombin inhibition (%): Experimental conditions No. 1, Table 1
Protocol: The cells (50 ml of the growing culture) are harvested and resuspended in 5 ml of a solution of 50 mM tris.HCl (pH 8.0) and 30 mM NaCl. Subsequently, the suspension is shaken with 5 g of cooled glass beads (diameter 0.5 mm), or by the addition of lysozyme (Boehringer), final concentration 1 mg/ml, at intervals during 30 to 45 minutes on a Multi-Tube Vortexer at high intensity. 0.5 ml of 2% acetic acid are added to 0.5 ml of the mixture which is then centrifuged at 12,000 revs/min for 20 minutes at 4° C. The supernatant solution is examined for hirudin activity (inhibition of thrombin). The thrombin-inhibition test is carried out as follows:
The test is based on the determination of the enzymatic removal of p-nitroaniline from the substrate Chromozym TH (tosyl-glycyl-prolyl-arginine-4-nitroanilide-acetate). […] The reaction time is 2 hours at 37° C. in the incubation chamber. For the test, 20 μl of the solution to be determined is diluted with 30 μl of filling buffer (0.2M tris.HCl pH 7.5, 1M NaCl, 100 μg/ml bovine serum albumin), and 20 μl of enzyme solution [10 mg of lyophilised thrombin from human plasma (Boehringer) dissolved in 1 ml of bidistilled water and diluted approximately 1:400 with the above filling buffer] and 150 μof substrate solution [[…] chromozym TH (Boehringer) dissolved in 4 ml of bidistilled water and diluted 1:15 with the above filling buffer] are added. All solutions are measured against a blank solution consisting of 70 μl of filling buffer (see above) and 150 μl of substrate solution and against an enzyme control solution consisting of 50 μl of filling buffer, 20 μl of enzyme solution and 150 μl of substrate solution. […] The thrombin inhibition (as a %) of the samples is calculated in accordance with the following formula: [formula]

Substance | effect on heart rate, respiration, blood pressure, thrombocyte count, fibrinogen and haemoglobin [1] | direct comparison tests with heparin ([2]; in vivo) | efficacy in experimental thrombosis, endotoxin shock and DIC ([2]; rats, pigs and dogs) | inhibition of other enzymes of the blood coagulation cascade [3] | specificity to thrombin / interactions with other proteinases of the blood coagulation system [4] | hypersensitivity reactions or allergic reactions [5] | active toxicity [6] | thrombin inhibition ([7]; HPLC fraction from S. cerevisiae GRF18/pJDB207R/PH05-HIR, conditions as in Example 26a) [%] | Thrombin inhibition (%) ([7]; RP-HPLC fractions) | Thrombin inhibition (%) ([7]; RP-HPLC fractions, listed as Fr 14) | Thrombin-inhibition % ([7]; RP-HPLC fractions, Experimental conditions No. 2, Table 2) [%]
hirudin | No effect | superior to heparin | effective | not inhibited | – | – | – | – | – | – | –
desulphatohirudin | – | – | – | – | completely specific to thrombin | no hypersensitivity reactions or allergic reactions | no toxic effects | 89.6 | 86 | 79 | 97.3 ± 2
